How the values were obtained:
[1] = test system: statin-treated hypertriglyceridemic patients with cardiovascular disease or at high risk for cardiovascular disease; test: REDUCE-IT: time to first occurrence of adjudicated cardiovascular events (primary, secondary, tertiary endpoints), AMR101 4 g/day vs placebo; type: in vivo, human
Excerpt: The following study, also referred to as the REDUCE-IT clinical trial, was a large cardiovascular (CV) outcome trial designed to assess CV risk reduction benefit of AMR101 treatment (commercially known as VASCEPA®) versus placebo on the 5-point primary composite endpoint: CV death, nonfatal stroke, nonfatal myocardial infarction (MI), coronary revascularizations, or unstable angina requiring hospitalization.
A multi-center, prospective, randomized, double-blind, placebo-controlled, parallel-group study was performed to evaluate the effect of AMR101 (4 g per day) on cardiovascular health and mortality in hypertriglyceridemic patients with cardiovascular disease or at high risk for cardiovascular disease. The intended expanded indication of the study was treatment with AMR101 as an add-on to statin therapy to reduce the risk of cardiovascular events in patients with clinical cardiovascular disease or with multiple risk factors for cardiovascular disease.
The primary objective of this study was, in patients at LDL-C goal while on statin therapy, with established cardiovascular disease (CVD) or at high risk for CVD, and hypertriglyceridemia (e.g., fasting triglycerides(TG) ≥200 mg/dL and <500 mg/dL), to evaluate the effect of AMR101 4 g daily on time from randomization to first occurrence of any component of the composite of the following major CV events: CV death; nonfatal MI (including silent MI); electrocardiograms (ECGs) were performed annually for the detection of silent MIs); nonfatal stroke; coronary revascularization; and unstable angina determined to be caused by myocardial ischemia by invasive/non-invasive testing and requiring emergent hospitalization.
The key secondary objective of this study was to evaluate the effect of AMR101 4 g daily on the time from randomization to the first occurrence of the composite of following major CV events: CV death, nonfatal MI (including silent MI), and nonfatal stroke.
Other secondary objectives for this study were to evaluate the effect of therapy on time from randomization to the first occurrence of the following individual or composite endpoints: composite of CV death or nonfatal MI (including silent MI); fatal or nonfatal MI (including silent MI); non-elective coronary revascularization represented as the composite of emergent or urgent classifications; CV death; unstable angina determined to be caused by myocardial ischemia by invasive/non-invasive testing and requiring emergent hospitalization; fatal or nonfatal stroke; composite of total mortality, nonfatal MI (including silent MI), or nonfatal stroke; and total mortality.
Primary Efficacy Endpoint: The primary efficacy endpoint was time from randomization to the first occurrence of the composite of the following clinical events: CV death; nonfatal MI (including silent MI; ECGs were performed annually for the detection of silent MIs); nonfatal stroke; coronary revascularization; and unstable angina determined to be caused by myocardial ischemia by invasive/non-invasive testing and requiring emergent hospitalization. The first occurrence of any of these major adverse vascular events during the follow-up period of the study was included in the incidence.
Secondary Efficacy Endpoints: The key secondary efficacy endpoint was the time from randomization to the first occurrence of the composite of CV death, nonfatal MI (including silent MI), or nonfatal stroke. […]

[2] = human, in vivo, 1 year
Procedure: Additional laboratory tests: Additional laboratory tests were performed and included: • A urine pregnancy test was administered to women of childbearing potential at certain visits as listed in schedule of procedures (Table 1). The urine pregnancy tests were performed at the Research Site utilizing marketed test kits, or at a certified clinical laboratory; • A fasting blood sample (10 mL) for archiving. This sample was collected only at sites in countries where allowed by local regulations and at sites for which approved by the IRB or IEC. The plasma from the archiving sample was stored frozen in 2 separate equal aliquots, and was used at the Sponsor's discretion to perform repeat analyses described in the protocol or to perform other tests related to cardiovascular health; and • Potential non-genetic bioassays were performed, including but not limited to: Apo A1, Apo C3, Apo E, NMR lipid profile (particle size and number), oxidized LDL, Lp(a), Lp-PLA2, serum fatty-acids concentrations, and gamma-glutamyltransferase (GGT).
In addition, the following were analyzed as tertiary endpoints for the ITT population: • Relationship between on-treatment hs-CRP and the primary and key secondary endpoints; and • Relationship between on-treatment serum eicosapentaenoic acid (EPA) and the primary and key secondary endpoints. […]

[3] = REDUCE-IT ITT, listed as AMR101
[4] = REDUCE-IT ITT, time to first event
[5] = vs placebo, listed as Icosapent Ethyl

## CC/C=C\C/C=C\C/C=C\C/C=C\C/C=C\CCCC(=O)OCC [icosapent ethyl, eicosapentaenoic acid ethyl ester]
[1]; REDUCE-IT ITT
  Amputation for PVD: % of patients: (0.5%)
  Cardiac arrest: % of patients: (0.5%)
  Cardiac arrhythmias requiring hospitalization of ≥24 hours: % of patients: (4.6%)
  Cardiovascular death: HR vs placebo: 0.80
  Cardiovascular death: patients: 4.3%
  Carotid revascularization: % of patients: (0.8%)
  Coronary revascularization: % of patients: (9.2%)
  Elective revascularization: % of patients: (4.7%)
  Emergent revascularization: % of patients: (1.0%)
  Hemorrhagic stroke: % of patients: (0.3%)
  Ischemic stroke: % of patients: (2.0%)
  New heart failure requiring hospitalization: % of patients: (3.4%)
  New heart failure: % of patients: (4.1%)
  Primary endpoint in patients with diabetes at baseline: % of patients: (18.1%)
  Salvage revascularization: % of patients: (0.0%)
  Sudden cardiac death: % of patients: (1.5%)
  Total mortality (death from any cause): patients: 6.7%
  Total mortality: HR vs placebo: 0.87
  Transient ischemic attack: % of patients: (1.6%)
  Urgent revascularization: % of patients: (4.4%)
[1]; [3]
  Hemorrhagic stroke: % of patients: 0.3%
  New heart failure: % of patients: 4.1%
[1]; [4]
  Key secondary composite endpoint: HR vs placebo: 0.74
  Primary composite endpoint: HR vs placebo: 0.75
[1]; patients with diabetes at baseline excluded
  New onset of diabetes: % of patients: (3.8%)
[1]; vs placebo
  Composite of cardiovascular death or nonfatal myocardial infarction: RRR: 25%
  Composite of total mortality, nonfatal myocardial infarction, or nonfatal stroke: reduction (RRR): 23%
  Key secondary composite endpoint: relative risk reduction: 26%
  Primary composite endpoint: relative risk reduction: 25%
  Total mortality: reduction (RRR): 13%
[1]; [5]
  Key secondary composite endpoint: relative risk reduction: 26.5%
  Primary composite endpoint: relative risk reduction: 24.8%
[2]
  EPA between group difference, median % change from baseline: 358.8%
  EPA between group difference, median absolute change from baseline: 114.9 µg/mL

Source: patent US20210308089A1, “METHODS OF TREATING AND/OR PREVENTING VIRAL INFECTIONS AND/OR DISEASES CAUSED BY VIRUSES IN A SUBJECT IN NEED THEREOF” (priority 2020, published 2021)
